Marks after values point to notes of the source that are not given here.
Experiments:
Assay type in all cases: cell-based
[1] = system: loblolly pine embryogenic cell lines; assay: Yield of stage 3 somatic embryos from embryogenic cultures retrieved from cryopreservation (Example 4); conditions: for Total Number of Somatic Embryos Harvested: recovered on 30 mg/l ABA, nine weeks on embryo development medium
Source text: The purpose of this experiment was to determine whether addition of ABA to the post-cryopreservation culture medium improved the yield of somatic embryos harvested from the cultures after they were retrieved from cryogenic storage. The six loblolly pine cell lines retrieved from cryogenic storage in Example 1 were used in this experiment. Embryogenic tissue from each cell line was dispersed onto nylon membranes using liquid DCR1 medium (formulation in Table 1 without the GELRITE). Four ml of embryogenic culture retrieved from cryogenic storage of each cell line and treatment (both the no ABA and the 30 mg/l ABA post-cryopreservation recovery medium) was added to 5 ml of liquid DCR1 medium and dispersed by agitation. One ml aliquots of the suspension were dispensed using a sterile 5-ml pipette with a cotton plug. Each 1 ml aliquot was transferred to the surface of a sterile 4 cm nylon membrane positioned on top of two sterile Whatman No. 2 filter papers in the bottom of an empty 15×100 mm sterile plastic culture plate. The nylon membranes with the dispersed embryogenic cultures were placed on either DCR1 medium containing 30 mg/l ABA or the same medium without any ABA depending on their respective post-cryopreservation recovery medium treatments from which they were derived. […] The tissue on the nylon membranes was cultured for 5-6 days at 23° C. in the dark to induce proliferation from the newly dispersed cultures. The nylon membranes with tissue were then transferred to an embryo development medium (see Table IV below) as described in U.S. Pat. No. 5,731,204 (Rutter et al.), to test the yield of stage 3 cotyledonary somatic embryos. The plates with membranes containing the embryogenic cultures were incubated in the dark at 23° C. The nylon membranes with the embryogenic cultures were transferred to new plates containing the same fresh embryo development medium every three weeks. After a total of nine weeks, the number of stage 3 embryos was counted on each membrane, and the data were analyzed using SAS GLM ANOVA statistical software.

[2] = system: loblolly pine (Pinus taeda) embryogenic cell lines; assay: Percent increase in fresh weight of pine embryogenic cell lines retrieved from cryopreservation on post-cryopreservation recovery medium (Examples 1 and 2); conditions: for Additional Culture Growth on DCR1 + ABA: 30 mg/l ABA vs medium without ABA
Experimental: Each embryogenic culture was cryopreserved as follows. Embryogenic tissue (7 to 14 days since the last subculture) was dispersed in liquid DCR1 medium (the DCR1 medium of Table I without the GELRITE) which contained 0.4 molar sorbitol as described in U.S. Pat. No. 5,506,136. The amount of embryogenic tissue used was sufficient to result in a 40% suspension (i.e., 4 ml volume of embryogenic tissue added to 6 ml of liquid medium). An Erlenmeyer flask containing the suspension was incubated for 24 hours in the dark on a gyrotory shaker (100 rpm), and then placed on ice. Five aliquots of the cryoprotective chemical dimethyl sulfoxide (DMSO) were aseptically added to the suspension to bring the final concentration of DMSO to 10% (vol/vol). One milliliter aliquots of the suspension containing DMSO were then transferred to 2 ml NALGENE® cryogenic vials (manufactured by the Nalge Co.), placed in programmable freezer (Model 9000 manufactured by Gordinier Electronics) and cooled to −35° C. at a rate of 0.33° C. per minute. The cultures were cryopreserved by immersing the cryogenic vials in liquid nitrogen inside a cryogenic storage tank (Model #CY50945 manufactured by Thermolyne, Inc.). The cultures remained in cryogenic storage for at least 36 months prior to retrieval.
The cryogenic vials were retrieved from the cryogenic storage tank and placed in 44° C. water until the ice crystals in the frozen embryogenic cultures were melted. The thawed culture from each cryogenic vial was aseptically pipetted and dispensed onto a sterile 7 cm×7 cm NITEX nylon 35 μm pore size membrane (commercially available from Sefar, Inc.) which had been placed on top of two sterile filter papers (Whatman no. 2 commercially available from Whatman International Ltd.) to absorb excess liquid from the culture and membrane. Each nylon membrane containing embryogenic culture was then transferred to a DCR1 medium which served as a temporary recovery medium for 24 hours in order to lower the concentration of cryoprotective chemicals and osmotic agents contained in the culture.
Each nylon membrane containing embryogenic tissue was then transferred to one of two post-cryopreservation medium treatments. One treatment was DCR1 medium without ABA. The other treatment was DCR1 medium with 30 mg/l of ABA. The initial fresh weight (FW0) of the embryogenic tissue was measured aseptically at this time. There were 3 plates (each derived from an individual cryogenic vial) per treatment and cell line. The embryogenic cultures on membranes were transferred after 24 hours, and thereafter, every 14 days to a new plate of the same medium. The culture environment during post-cryopreservation recovery and growth was 23° C. in the dark. At 25 days after retrieval from cryogenic storage the final fresh weight (FWF) of the proliferating embryogenic culture was measured. The growth of the embryogenic tissue during the post-cryopreservation treatments was calculated as a percent increase in fresh weight relative to the initial fresh weight as follows: ((FWF−FW0)/FW0)*100.
Each cell line was cryopreserved as follows. The liquid suspension cultures (7 days since the last subculture) were aseptically centrifuged at 1500 rpm for 10 minutes (400 g-force) to separate the embryogenic tissue from the liquid medium. The supernatant medium was removed from the embryogenic tissue. To the remaining volume of centrifuged embryogenic tissue, was added an equal volume of liquid DCR1 medium containing 0.8 molar sorbitol, so that the final sorbitol concentration was 0.4 molar. An Erlenmeyer flasks containing each suspension was incubated for 24 hours in the dark on a gyrotory shaker (100 rpm), and then placed on ice. The cryoprotective chemical DMSO was added to the chilled cultures at one time to bring the final concentration of DMSO to 10% (vol/vol). […]

[3] = system: pitch×loblolly pine interspecies hybrid cell lines (AA-24, Q-01, Q-39); assay: Mean culture fresh weight of embryogenic cultures retrieved from cryopreservation on post-cryopreservation recovery medium (Example 3)
Source text: (§1) Five different pine embryogenic cell lines chosen at random from a long-term cryogenic storage bank were initiated, grown as liquid embryogenic suspension cultures, and cryopreserved via the methods described in Examples 1 and 2. The five cell lines included: one pitch×loblolly pine interspecies hybrid cell line (AA-24) and four loblolly pine cell lines (G-05, K-12, E-117 and O-72). Also, two additional pitch×loblolly pine F1 hybrid cell lines (Q-01 and Q-39) were initiated, grown as liquid embryogenic suspension cultures, and cryopreserved via the methods described in Examples 1 and 2 except that the initiation and maintenance media contained 10.0 mg/l of ABA (as taught in U.S. Pat. No. 5,856,191). The seven cell lines were retrieved from cryogenic storage, thawed, and transferred, via the procedure described in Example 2. Each cell line was subjected to three post-cryopreservation medium treatments. The first treatment was a control (i.e., DCR1 medium without ABA), the second treatment was DCR1 medium with 10 mg/l of ABA, and the third treatment was DCR1 medium with 30 mg/l of ABA. There were four plates (each derived from an individual cryogenic vial) per treatment and cell line.
(§2) The embryogenic cultures on membranes were transferred after 24 hours from the temporary recovery medium onto the post-cryopreservation medium and thereafter, every 14 days to a new plate of the same post-cryopreservation medium. The culture environment during post-cryopreservation recovery and growth was 23° C. in the dark. At 28 days after retrieval from cryogenic storage the final fresh weight of the proliferating embryogenic culture was measured. The data were analyzed using the SAS GLM ANOVA statistical software program (Release 6.12 commercially available from the SAS Institute, Inc.), and the results are shown in Table III below.

[4] = system: loblolly pine cell lines (G-05, K-12, E-117 and O-72); assay: as above; conditions: for % Increase of average culture fresh weight over control without ABA: all seven cell lines; for Mean Culture Fresh Weight, average of cell lines: average of all seven cell lines (loblolly and pitch×loblolly hybrid); for Mean Culture Fresh Weight: 28 days after retrieval
Source text: as §1, §2

[5] = system: loblolly pine (Pinus taeda) embryogenic cell lines; assay: Percent increase in fresh weight of pine embryogenic cell lines retrieved from cryopreservation on post-cryopreservation recovery medium (Examples 1 and 2); conditions: DCR1 + 30 mg/l ABA, 26 days after retrieval
[6] = all six cell lines A1-A6, 30 mg/l ABA

CC1=CC(=O)CC(C)(C)[C@@]1(O)/C=C/C(C)=C\C(=O)O [ABA, abscisic acid]
% Increase of total number of somatic embryos harvested over control without ABA [1, 6]: 332%
Total Number of Somatic Embryos Harvested, total of the 6 cell lines [1, 6]: 588
Total Number of Somatic Embryos Harvested ([1]; cell line A1): 404
Total Number of Somatic Embryos Harvested ([1]; cell line A2): 82
Total Number of Somatic Embryos Harvested ([1]; cell line A3): 0
Total Number of Somatic Embryos Harvested ([1]; cell line A4): 43
Total Number of Somatic Embryos Harvested ([1]; cell line A5): 15
Total Number of Somatic Embryos Harvested ([1]; cell line A6): 44
Additional Culture Growth on DCR1 + ABA, overall ([2]; Average and Increase lines, all ten cell lines, 30 mg/l ABA): yes
Increase of overall average percent increase in fresh weight on medium with ABA compared to medium without ABA ([2]; all ten cell lines, 30 mg/l ABA): 70%
Average Percent Increase in Fresh Weight, average of all ten cell lines ([2]; average of cell lines A1-A6 and B1-B4, DCR1 + 30 mg/l ABA): 2469%
Additional Culture Growth on DCR1 + ABA ([2]; cell line A1): yes
Average Percent Increase in Fresh Weight ([2]; cell line A1, DCR1 + 30 mg/l ABA, 25 days after retrieval): 270%
Additional Culture Growth on DCR1 + ABA ([2]; cell line A2): yes
Average Percent Increase in Fresh Weight ([2]; cell line A2, DCR1 + 30 mg/l ABA, 25 days after retrieval): 7484%
Additional Culture Growth on DCR1 + ABA ([2]; cell line A3): yes
Average Percent Increase in Fresh Weight ([2]; cell line A3, DCR1 + 30 mg/l ABA, 25 days after retrieval): 4065%
Total fresh weight of embryogenic tissue from three cryogenic vials ([2]; cell line A3, medium with ABA (30 mg/l)): 5.17 grams
Additional Culture Growth on DCR1 + ABA ([2]; cell line A4): yes
Average Percent Increase in Fresh Weight ([2]; cell line A4, DCR1 + 30 mg/l ABA, 25 days after retrieval): 1652%
Additional Culture Growth on DCR1 + ABA ([2]; cell line A5): yes
Average Percent Increase in Fresh Weight ([2]; cell line A5, DCR1 + 30 mg/l ABA, 25 days after retrieval): 6479%
Additional Culture Growth on DCR1 + ABA ([2]; cell line A6): yes
Average Percent Increase in Fresh Weight ([2]; cell line A6, DCR1 + 30 mg/l ABA, 25 days after retrieval): 1221%
Additional Culture Growth on DCR1 + ABA ([2]; cell line B1): no
Additional Culture Growth on DCR1 + ABA ([2]; cell line B2): yes
Additional Culture Growth on DCR1 + ABA ([2]; cell line B3): yes
Average Percent Increase in Fresh Weight ([2]; cell line B3, DCR1 + 30 mg/l ABA, 26 days after retrieval): 3259%
Additional Culture Growth on DCR1 + ABA ([2]; cell line B4): yes
Mean Culture Fresh Weight ([3]; cell line AA-24, 10 mg/l ABA, 28 days after retrieval): 5.22 g
Mean Culture Fresh Weight ([3]; cell line AA-24, 30 mg/l ABA, 28 days after retrieval): 5.45^a g
Mean Culture Fresh Weight ([3]; cell line Q-01 (initiated and maintained with 10.0 mg/l ABA), 10 mg/l ABA, 28 days): 2.91^b g
Mean Culture Fresh Weight ([3]; cell line Q-01 (initiated and maintained with 10.0 mg/l ABA), 30 mg/l ABA, 28 days): 3.81^ab g
Mean Culture Fresh Weight ([3]; cell line Q-39 (initiated and maintained with 10.0 mg/l ABA), 10 mg/l ABA, 28 days): 0.01 g
Mean Culture Fresh Weight ([3]; cell line Q-39 (initiated and maintained with 10.0 mg/l ABA), 30 mg/l ABA, 28 days): 0.17 g
% Increase of average culture fresh weight over control without ABA ([4]; 10 mg/l ABA): 35%
% Increase of average culture fresh weight over control without ABA ([4]; 30 mg/l ABA): 52%^a
Mean Culture Fresh Weight, average of cell lines ([4]; 10 mg/l ABA): 1.86 g
Mean Culture Fresh Weight, average of cell lines ([4]; 30 mg/l ABA): 2.10^a g
Mean Culture Fresh Weight ([4]; cell line E-117, 10 mg/l ABA): 0.38^a g
Mean Culture Fresh Weight ([4]; cell line E-117, 30 mg/l ABA): 0.33 g
Mean fresh weight higher than control treatment without ABA ([4]; cell line G-05, 10 mg/l ABA): 52%
Mean Culture Fresh Weight ([4]; cell line G-05, 10 mg/l ABA): 3.82^a g
Mean fresh weight higher than control treatment without ABA ([4]; cell line G-05, 30 mg/l ABA): 48%
Mean Culture Fresh Weight ([4]; cell line G-05, 30 mg/l ABA): 3.73 g
Mean Culture Fresh Weight ([4]; cell line K-12, 10 mg/l ABA): 0.55 g
Mean Culture Fresh Weight ([4]; cell line K-12, 30 mg/l ABA): 1.09^a g
Mean Culture Fresh Weight ([4]; cell line O-72, 10 mg/l ABA): 0.09 g
Mean Culture Fresh Weight ([4]; cell line O-72, 30 mg/l ABA): 0.10^a g
Average Percent Increase in Fresh Weight ([5]; cell line B1): 195%
Average Percent Increase in Fresh Weight ([5]; cell line B2): 29%
Average Percent Increase in Fresh Weight ([5]; cell line B4): 34%
